From PubChem BioAssay AID1745844 (Carcinogenic Potency Database (CPDB), 2022)
Several values for one entry are separate records, joined by “and”; a condition that tells them apart may be missing. Identical values can stand only once. Activity calls are given as the source filed them. The rule behind the calls is not given here.

Tested on: rodent lifetime carcinogenesis bioassay, tumor incidence TD50
Experiment: carcinogenic potency in animals, long-term in vivo studies, CPDB compilation (AID 1745844)

Nc1cccc2c(N)cccc12
TD50 (mouse, strain B6C3F1, females, in feed, site: any site (literature study), lesion: several types, types named in the paper, dosed 103 weeks, study length 105 weeks): 223 mg/kg/day | TD50 (mouse, strain B6C3F1, females, in feed, site: liver + lung + thyroid gland, lesion: hepatocellular adenoma + hepatocellular carcinoma + alveolar/bronchiolar adenoma + alveolar/bronchiolar carcinoma + c-cell adeno, dosed 103 weeks, study length 105 weeks): 66.6 mg/kg/day | TD50 (mouse, strain B6C3F1, females, in feed, site: liver, lesion: hepatocellular adenoma + hepatocellular carcinoma + neoplastic nodule, dosed 103 weeks, study length 105 weeks): 129 mg/kg/day | TD50 (mouse, strain B6C3F1, females, in feed, site: liver, lesion: hepatocellular adenoma + hepatocellular carcinoma, dosed 103 weeks, study length 105 weeks): 129 mg/kg/day | TD50 (mouse, strain B6C3F1, females, in feed, site: liver, lesion: hepatocellular carcinoma, dosed 103 weeks, study length 105 weeks): 115 mg/kg/day | TD50 (mouse, strain B6C3F1, females, in feed, site: lung, lesion: alveolar/bronchiolar adenoma + alveolar/bronchiolar carcinoma, dosed 103 weeks, study length 105 weeks): 331 mg/kg/day | TD50 (mouse, strain B6C3F1, females, in feed, site: thyroid gland, lesion: c-cell adenoma + c-cell carcinoma, dosed 103 weeks, study length 105 weeks): 936 mg/kg/day | TD50 (mouse, strain B6C3F1, females, in feed, site: thyroid gland, lesion: c-cell carcinoma, dosed 103 weeks, study length 105 weeks): 1320 mg/kg/day | TD50 (mouse, strain B6C3F1, females, in feed, site: thyroid gland, lesion: follicular-cell adenoma + papillary cystadenoma, NOS + papillary adenoma, dosed 103 weeks, study length 105 weeks): 327 mg/kg/day | TD50 (mouse, strain B6C3F1, males, in feed, site: any site (literature study), lesion: several types, types named in the paper, dosed 103 weeks, study length 105 weeks): 583 mg/kg/day | TD50 (mouse, strain B6C3F1, males, in feed, site: liver, lesion: hepatocellular adenoma + hepatocellular carcinoma + neoplastic nodule, dosed 103 weeks, study length 105 weeks): 1640 mg/kg/day | TD50 (mouse, strain B6C3F1, males, in feed, site: thyroid gland, lesion: c-cell adenoma + c-cell carcinoma + follicular-cell adenoma + papillary cystadenoma, NOS + papillary adenoma, dosed 103 weeks, study length 105 weeks): 217 mg/kg/day | TD50 (mouse, strain B6C3F1, males, in feed, site: thyroid gland, lesion: c-cell adenoma + c-cell carcinoma, dosed 103 weeks, study length 105 weeks): 1260 mg/kg/day | TD50 (mouse, strain B6C3F1, males, in feed, site: thyroid gland, lesion: c-cell carcinoma, dosed 103 weeks, study length 105 weeks): 1910 mg/kg/day | TD50 (mouse, strain B6C3F1, males, in feed, site: thyroid gland, lesion: follicular-cell adenoma + papillary cystadenoma, NOS + papillary adenoma, dosed 103 weeks, study length 105 weeks): 276 mg/kg/day | TD50 (rat, strain Fischer 344, females, in feed, site: any site (literature study), lesion: several types, types named in the paper, dosed 103 weeks, study length 106 weeks): 55.8 mg/kg/day | TD50 (rat, strain Fischer 344, females, in feed, site: clitoral gland + uterus, lesion: adenoma, NOS + carcinoma, NOS + endometrial stromal polyp, dosed 103 weeks, study length 106 weeks): 50.8 mg/kg/day | TD50 (rat, strain Fischer 344, females, in feed, site: clitoral gland, lesion: adenoma, NOS + carcinoma, NOS, dosed 103 weeks, study length 106 weeks): 137 mg/kg/day | TD50 (rat, strain Fischer 344, females, in feed, site: liver, lesion: hepatocellular adenoma + hepatocellular carcinoma + neoplastic nodule, dosed 103 weeks, study length 106 weeks): 236 mg/kg/day | TD50 (rat, strain Fischer 344, females, in feed, site: thyroid gland, lesion: c-cell adenoma + c-cell carcinoma, dosed 103 weeks, study length 106 weeks): 57.6 mg/kg/day | TD50 (rat, strain Fischer 344, females, in feed, site: uterus, lesion: endometrial stromal polyp, dosed 103 weeks, study length 106 weeks): 69.6 mg/kg/day | TD50 (rat, strain Fischer 344, males, in feed, site: any site (literature study), lesion: several types, types named in the paper, dosed 103 weeks, study length 106 weeks): 48.1 mg/kg/day (inactive) | TD50 (rat, strain Fischer 344, males, in feed, site: liver, lesion: hepatocellular adenoma + hepatocellular carcinoma + neoplastic nodule, dosed 103 weeks, study length 106 weeks): 1040 mg/kg/day

Nc1ccc(O)c(N)c1
carcinogen call (mouse, strain B6C3F1, females, by gavage, site: any site (literature study), lesion: several types, types named in the paper, dosed 103 weeks, study length 104 weeks): negative (inactive) | TD50 (mouse, strain B6C3F1, females, by gavage, site: liver, lesion: hepatocellular adenoma + hepatocellular carcinoma + neoplastic nodule, dosed 103 weeks, study length 104 weeks): 2890 mg/kg/day | TD50 (mouse, strain B6C3F1, females, by gavage, site: lung, lesion: alveolar/bronchiolar adenoma + alveolar/bronchiolar carcinoma, dosed 103 weeks, study length 104 weeks): 239 mg/kg/day | TD50 (mouse, strain B6C3F1, males, by gavage, site: kidney, lesion: tubule adenoma, dosed 103 weeks, study length 104 weeks): 320 mg/kg/day and 143 mg/kg/day | TD50 (mouse, strain B6C3F1, males, by gavage, site: liver, lesion: hepatocellular adenoma + hepatocellular carcinoma + neoplastic nodule, dosed 103 weeks, study length 104 weeks): 164 mg/kg/day | TD50 (mouse, strain B6C3F1, males, by gavage, site: lung, lesion: alveolar/bronchiolar adenoma + alveolar/bronchiolar carcinoma, dosed 103 weeks, study length 104 weeks): 194 mg/kg/day | TD50 (rat, strain Fischer 344, females, by gavage, site: any site (literature study), lesion: several types, types named in the paper, dosed 103 weeks, study length 104 weeks): 46.3 mg/kg/day (inactive) | TD50 (rat, strain Fischer 344, males, by gavage, site: any site (literature study), lesion: several types, types named in the paper, dosed 103 weeks, study length 104 weeks): 543 mg/kg/day (inactive)

CC(O)CN(C)N=O (stereo not given)
carcinogen call (rat, strain F344/DuCrj, males, in drinking water, site: liver, lesion: one or several types, types not named, dosed 40 weeks, study length 78 weeks): negative (inactive) | TD50 (rat, strain Fischer 344, females, in drinking water, site: esophagus, lesion: carcinoma, dosed 30 weeks, study length 75 weeks): 0.408 mg/kg/day | TD50 (rat, strain Fischer 344, females, in drinking water, site: esophagus, lesion: several types, types named in the paper, dosed 30 weeks, study length 75 weeks): 0.105 mg/kg/day | TD50 (rat, strain Fischer 344, females, in drinking water, site: liver, lesion: hepatocellular carcinoma, dosed 30 weeks, study length 75 weeks): 0.895 mg/kg/day | TD50 (rat, strain Fischer 344, females, in drinking water, site: liver, lesion: neoplastic nodule, dosed 30 weeks, study length 75 weeks): 2.54 mg/kg/day | TD50 (rat, strain Fischer 344, females, in drinking water, site: liver, lesion: several types, types named in the paper, dosed 30 weeks, study length 75 weeks): 0.798 mg/kg/day | TD50 (rat, strain Fischer 344, females, in drinking water, site: lung, lesion: several types, types named in the paper, dosed 30 weeks, study length 75 weeks): 0.408 mg/kg/day | TD50 (rat, strain Fischer 344, females, in drinking water, site: nasal cavity, lesion: several types, types named in the paper, dosed 30 weeks, study length 75 weeks): 0.0486 mg/kg/day | TD50 (rat, strain Fischer 344, males, in drinking water, site: esophagus, lesion: several types, types named in the paper, dosed 30 weeks, study length 75 weeks): 0.17 mg/kg/day | TD50 (rat, strain Fischer 344, males, in drinking water, site: nasal cavity, lesion: several types, types named in the paper, dosed 30 weeks, study length 75 weeks): 0.0442 mg/kg/day

F
carcinogen call (mouse, strain B6C3F1, females, in drinking water, site: any site (literature study), lesion: several types, types named in the paper, dosed 103 weeks, study length 104 weeks): negative (inactive) | carcinogen call (mouse, strain B6C3F1, males, in drinking water, site: any site (literature study), lesion: several types, types named in the paper, dosed 103 weeks, study length 104 weeks): negative (inactive) | carcinogen call (mouse, strain Charles River CD1, both sexes, in drinking water, site: any site (literature study), lesion: malignant tumor, dosed 129 weeks, study length 129 weeks): negative (inactive) | carcinogen call (mouse, strain Charles River CD1, both sexes, in drinking water, site: any site (literature study), lesion: one or several types, types not named, dosed 129 weeks, study length 129 weeks): negative (inactive) | carcinogen call (mouse, strain Charles River CD1, both sexes, in drinking water, site: liver, lesion: one or several types, types not named, dosed 129 weeks, study length 129 weeks): negative (inactive) | carcinogen call (mouse, strain Charles River CD1, both sexes, in drinking water, site: lung, lesion: one or several types, types not named, dosed 129 weeks, study length 129 weeks): negative (inactive) | carcinogen call (mouse, strain DBA, females, in feed, site: mammary gland, lesion: carcinoma, dosed 90 weeks, study length 90 weeks): negative (inactive) | TD50 (rat, strain Fischer 344, females, in drinking water, site: any site (literature study), lesion: several types, types named in the paper, dosed 103 weeks, study length 104 weeks): 73.9 mg/kg/day (inactive) | TD50 (rat, strain Fischer 344, males, in drinking water, site: any site (literature study), lesion: several types, types named in the paper, dosed 103 weeks, study length 104 weeks): 147 mg/kg/day | TD50 (rat, strain Fischer 344, males, in drinking water, site: coccyx + humerus + subcutaneous tissue + vertebra, lesion: osteosarcoma, dosed 103 weeks, study length 104 weeks): 82.7 mg/kg/day | TD50 (rat, strain Fischer 344, males, in drinking water, site: coccyx + humerus + vertebra, lesion: osteosarcoma, dosed 103 weeks, study length 104 weeks): 109 mg/kg/day

P
TD50 (rat, strain Fischer 344, females, inhaled, site: liver, lesion: hepatocellular adenoma, dosed 104 weeks, study length 104 weeks): 53.1 mg/kg/day (inactive) | carcinogen call (rat, strain Fischer 344, females, inhaled, site: liver, lesion: one or several types, types not named, dosed 52 weeks, study length 52 weeks): negative (inactive) | TD50 (rat, strain Fischer 344, males, inhaled, site: liver, lesion: hepatocellular adenoma, dosed 104 weeks, study length 104 weeks): 5.69 mg/kg/day (inactive) | carcinogen call (rat, strain Fischer 344, males, inhaled, site: liver, lesion: hepatocellular carcinoma, dosed 104 weeks, study length 104 weeks): negative (inactive) | carcinogen call (rat, strain Fischer 344, males, inhaled, site: liver, lesion: one or several types, types not named, dosed 52 weeks, study length 52 weeks): negative (inactive) | carcinogen call (rat, strain Sprague-Dawley, females, in feed, site: any site (literature study), lesion: one or several types, types not named, dosed 52 weeks, study length 52 weeks): negative (inactive) | carcinogen call (rat, strain Sprague-Dawley, females, in feed, site: any site (literature study), lesion: several types, types named in the paper, dosed 104 weeks, study length 104 weeks): negative (inactive) | carcinogen call (rat, strain Sprague-Dawley, males, in feed, site: any site (literature study), lesion: one or several types, types not named, dosed 52 weeks, study length 52 weeks): negative (inactive) | carcinogen call (rat, strain Sprague-Dawley, males, in feed, site: any site (literature study), lesion: several types, types named in the paper, dosed 104 weeks, study length 104 weeks): negative (inactive)

CCCCCCCCCCCCCCN(C)N=O
carcinogen call (rat, strain Fischer 344, males, by gavage, site: any site (literature study), lesion: several types, types named in the paper, dosed 30 weeks, study length 102 weeks): positive | TD50 (rat, strain Fischer 344, males, by gavage, site: lung, lesion: adenocarcinoma, dosed 30 weeks, study length 102 weeks): 60.5 mg/kg/day | TD50 (rat, strain Fischer 344, males, by gavage, site: lung, lesion: adenoma, dosed 30 weeks, study length 102 weeks): 29.4 mg/kg/day | carcinogen call (rat, strain Fischer 344, males, by gavage, site: urinary bladder, lesion: transitional-cell carcinoma, dosed 30 weeks, study length 102 weeks): positive
